Measured values from patent US20260183277A1, “ANTIVIRAL PHARMACEUTICAL COMPOSITION COMPRISING ERRy INHIBITOR AS ACTIVE INGREDIENT” (priority 2024, published 2026).

Test system: SARS-CoV-2 KCDC03
Assay type: cell-based

CC(C)N1CCN(c2ccc(/C(=C(/CCCO)c3ccccc3)c3ccc(O)cc3)cc2)CC1 [DN200434]
genome replication, progeny production, and protein synthesis of SARS-CoV-2: effectively suppressed
